{"source": "ChEMBL document CHEMBL6177974", "about": "“Synthesis and Pharmacological Characterization of Novel Peripheral Cannabinoid-1 Receptor Blockers Based on a Tricyclic Scaffold” (J Med Chem, 2025)", "key": {"Mus musculus [1]": {"test_system": "Mus musculus", "experiment": "Inhibition of WIN55212-induced catalepsy in male C57Bl/6J mouse at 10 mg/kg, po", "assay_type": "functional, organism-based"}, "Mus musculus [2]": {"test_system": "Mus musculus", "experiment": "Anti-obese activity in diet-induced obese male C57Bl/6J mouse model assessed as decrease in body weight at 1 mg/kg/day, po treated for 24 days", "assay_type": "functional, organism-based", "details": "time 24.0 day"}, "Mus musculus [3]": {"test_system": "Mus musculus", "experiment": "Anti-obese activity in diet-induced obese male C57Bl/6J mouse model assessed as reversal of hepatic steatosis at 1 mg/kg/day, po treated for 24 days by H and E staining based analysis", "assay_type": "functional, organism-based", "details": "time 24.0 day"}, "Mus musculus [4]": {"test_system": "Mus musculus", "experiment": "Anti-obese activity in diet-induced obese male C57Bl/6J mouse model assessed as decrease in total body fat at 1 mg/kg/day, po treated for 24 days by EchoMRI analysis", "assay_type": "functional, organism-based", "details": "time 24.0 day"}, "Mus musculus [5]": {"test_system": "Mus musculus", "experiment": "Anti-obese activity in diet-induced obese male C57Bl/6J mouse model assessed as reduction in ALT level at 1 mg/kg/day, po treated for 24 days", "assay_type": "functional, organism-based", "details": "time 24.0 day"}, "Mus musculus [6]": {"test_system": "Mus musculus", "experiment": "Anti-obese activity in diet-induced obese male C57Bl/6J mouse model assessed as reduction in liver triglyceride content at 1 mg/kg/day, po treated for 24 days", "assay_type": "functional, organism-based", "details": "time 24.0 day"}, "[7]": {"experiment": "Mutagenicity in Salmonella typhimurium TA100 incubated for 48 to 72 hrs in presence of liver S9 fraction by mini-Ames test", "assay_type": "toxicity, subcellular", "details": "salmonella enterica subsp. enterica serovar typhimurium, time 48-72 hrs"}, "Mus musculus [8]": {"test_system": "Mus musculus", "experiment": "Anti-obese activity in diet-induced obese male C57Bl/6J mouse model assessed as reversal of hepatocellular damage at 1 mg/kg/day, po treated for 24 days by H and E staining based analysis", "assay_type": "functional, organism-based", "details": "time 24.0 day"}, "Mus musculus [9]": {"test_system": "Mus musculus", "experiment": "Anti-obese activity in diet-induced obese male C57Bl/6J mouse model assessed as reduction in glucose level in fasting condition at 1 mg/kg/day, po treated for 24 days", "assay_type": "functional, organism-based", "details": "time 24.0 day"}, "Mus musculus [10]": {"test_system": "Mus musculus", "experiment": "Anti-obese activity in diet-induced obese male C57Bl/6J mouse model assessed as reduction in hypertriglyceridemia at 1 mg/kg/day, po treated for 24 days", "assay_type": "functional, organism-based", "details": "time 24.0 day"}, "[11]": {"experiment": "Mutagenicity in Salmonella typhimurium TA98 incubated for 48 to 72 hrs in presence of liver S9 fraction by mini-Ames test", "assay_type": "toxicity, subcellular", "details": "salmonella enterica subsp. enterica serovar typhimurium, time 48-72 hrs"}, "Mus musculus [12]": {"test_system": "Mus musculus", "experiment": "Anti-obese activity in diet-induced obese male C57Bl/6J mouse model assessed as reduction in ALP level at 1 mg/kg/day, po treated for 24 days", "assay_type": "functional, organism-based", "details": "time 24.0 day"}, "[13]": {"experiment": "Stability in SIF at pH 6.8 by HPLC analysis", "assay_type": "physicochemical", "details": "simulated gi fluid"}, "Mus musculus [14]": {"test_system": "Mus musculus", "experiment": "Anti-obese activity in diet-induced obese male C57Bl/6J mouse model assessed as reduction in hypercholesterolemia at 1 mg/kg/day, po treated for 24 days", "assay_type": "functional, organism-based", "details": "time 24.0 day"}, "Mus musculus [15]": {"test_system": "Mus musculus", "experiment": "Anti-obese activity in diet-induced obese male C57Bl/6J mouse model assessed as reduction in AST level at 1 mg/kg/day, po treated for 24 days", "assay_type": "functional, organism-based", "details": "time 24.0 day"}, "[16]": {"target": "Cannabinoid receptor 1 (Mus musculus) (UniProt P47746)", "sequence (P47746 whole entry)": "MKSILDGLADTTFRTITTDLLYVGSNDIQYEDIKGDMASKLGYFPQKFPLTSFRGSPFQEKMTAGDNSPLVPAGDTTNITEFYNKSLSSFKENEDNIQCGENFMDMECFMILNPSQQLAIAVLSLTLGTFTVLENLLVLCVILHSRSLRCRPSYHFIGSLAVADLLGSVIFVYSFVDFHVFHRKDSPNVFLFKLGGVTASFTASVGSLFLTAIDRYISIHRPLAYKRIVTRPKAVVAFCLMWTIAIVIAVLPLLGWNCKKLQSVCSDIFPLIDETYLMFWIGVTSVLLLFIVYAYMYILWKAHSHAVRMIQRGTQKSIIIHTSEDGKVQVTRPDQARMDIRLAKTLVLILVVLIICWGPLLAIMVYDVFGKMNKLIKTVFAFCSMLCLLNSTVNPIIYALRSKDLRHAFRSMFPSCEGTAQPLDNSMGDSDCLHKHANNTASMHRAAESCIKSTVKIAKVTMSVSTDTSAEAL", "experiment": "Antagonist activity at CB1R in C57Bl/6Jhsd mouse cortex membrane assessed as inhibition of [35S]GTPgammaS binding incubated for 1 hr by liquid scintillation counter analysis", "assay_type": "functional, cell membranes", "details": "filed as antagonist"}, "[17]": {"experiment": "Toxicity in male C57Bl/6J mouse assessed as CNS-mediated hyperactivity at 1 to 10 mg/kg, po", "assay_type": "organism-based", "details": "in vivo, dose 1-10 mg/kg"}, "Mus musculus [18]": {"test_system": "Mus musculus", "experiment": "Inhibition of HU-210-induced hypoactivity in male C57Bl/6J mouse at 1 to 10 mg/kg, po", "assay_type": "functional, organism-based", "details": "dose 1-10 mg/kg"}, "[19]": {"experiment": "Stability in SGF at pH 1.2 by HPLC analysis", "assay_type": "physicochemical", "details": "simulated gi fluid"}, "Mus musculus [20]": {"test_system": "Mus musculus", "experiment": "Anti-obese activity in diet-induced obese male C57Bl/6J mouse model assessed as increase in lean body mass at 1 mg/kg/day, po treated for 24 days by EchoMRI analysis", "assay_type": "functional, organism-based", "details": "time 24.0 day"}, "[21]": {"experiment": "Toxicity in male C57Bl/6J mouse assessed as change in locomotor activity at 1 to 10 mg/kg, po", "assay_type": "organism-based", "details": "in vivo, dose 1-10 mg/kg"}, "[22]": {"experiment": "Protein binding in mouse brain at 1 uM measured after 5 hrs by equilibrium dialysis method", "assay_type": "ADME, tissue-based"}, "[23]": {"target": "Cannabinoid receptor 1 (Mus musculus) (UniProt P47746)", "experiment": "Inverse agonist activity at CB1R in C57Bl/6Jhsd mouse cortex membrane assessed as inhibition of [35S]GTPgammaS binding incubated for 1 hr by liquid scintillation counter analysis", "assay_type": "functional, cell membranes", "details": "filed as inverse agonist"}}, "note": "Active and inactive are the calls of the source. The rule behind the calls is not given here."}
{"smiles": "Cc1c(C(=O)NN2CCCCC2)nn(-c2ccc(Cl)cc2Cl)c1-c1ccc(Cl)cc1", "values": [{"measurement": "inhibition", "setting": "Mus musculus [1]", "result": "Active"}]}
{"smiles": "O=S(=O)(N[C@H]1CCCOc2c1nn(-c1ccccc1Cl)c2-c1ccc(Cl)cc1)c1ccc(Cl)cc1", "values": [{"measurement": "Activity", "setting": "Mus musculus [2]", "result": "Active"}, {"measurement": "Activity", "setting": "Mus musculus [3]", "result": "Active"}, {"measurement": "Activity", "setting": "Mus musculus [4]", "result": "Active"}, {"measurement": "Activity", "setting": "Mus musculus [5]", "result": "Active"}, {"measurement": "Activity", "setting": "Mus musculus [6]", "result": "Active"}, {"measurement": "Activity", "setting": "[7]", "result": "Non-toxic"}, {"measurement": "Activity", "setting": "Mus musculus [8]", "result": "Active"}, {"measurement": "Activity", "setting": "Mus musculus [9]", "result": "Active"}, {"measurement": "Activity", "setting": "Mus musculus [10]", "result": "Active"}, {"measurement": "Activity", "setting": "[11]", "result": "Non-toxic"}, {"measurement": "Activity", "setting": "Mus musculus [12]", "result": "Active"}, {"measurement": "Stability", "setting": "[13]", "result": "Stable"}, {"measurement": "Activity", "setting": "Mus musculus [14]", "result": "Active"}, {"measurement": "Activity", "setting": "Mus musculus [15]", "result": "Active"}, {"measurement": "Activity", "setting": "[16]", "result": "Active; Compound Exhibited As Neutral Antagonist"}, {"measurement": "Activity", "setting": "[17]", "result": "Non-toxic"}, {"measurement": "inhibition", "setting": "Mus musculus [18]", "result": "inactive"}, {"measurement": "Stability", "setting": "[19]", "result": "Stable"}, {"measurement": "Activity", "setting": "Mus musculus [20]", "result": "Active"}, {"measurement": "Activity", "setting": "[21]", "result": "Non-toxic"}, {"measurement": "PB", "setting": "[22]", "result": "Active"}]}
{"smiles": "CS(=O)(=O)N[C@H]1CCCOc2c1nn(-c1ccccc1Cl)c2-c1ccc(Cl)cc1", "values": [{"measurement": "Activity", "setting": "[16]", "result": "Active; Compound Exhibited As Neutral Antagonist"}]}
{"smiles": "Cc1ccc(S(=O)(=O)N[C@H]2CCCOc3c2nn(-c2ccccc2Cl)c3-c2ccc(Cl)cc2)cc1", "values": [{"measurement": "Activity", "setting": "[23]", "result": "Active"}]}
{"smiles": "CNC(=O)N[C@H]1CCCOc2c1nn(-c1ccccc1Cl)c2-c1ccc(Cl)cc1", "values": [{"measurement": "Activity", "setting": "[16]", "result": "Active; Compound Exhibited As Neutral Antagonist"}]}
